This note sets out measurements from US20240117417A1, “CELL ENGINEERING COMPOSITIONS AND METHODS USING FLUOROGENIC OLIGONUCLEOTIDE SIGNALING PROBES AND FLOW CYTOMETRY” (Secondcell Bio, LLC, priority 2021, published 2024).

pEC50: −log10 of the molar value. Where a name gives a salt, the structure may show the parent alone. Read-outs that look alike come from different tables or passages of the source.

In test [1] the test system is GABAA receptor ion channel subunit combinations α1β3γ2s, α2β3γ2s, α3β3γ2s or α5β3γ2s. Nature of the test: HTS of LOPAC library on the panel of GABAA cell lines, fluorescent membrane potential cell-based assay. The protocol: Production of cell lines: Each gene of interest was subcloned into an independent mammalian expression vector containing a detection tag and drug selectable marker and transfected into HEK293T and CHO cells cultured using DMEM supplemented with 50 mL fetal bovine serum, a 4 mM L-Glutamine, 10 mM Hepes pH 7.4. After 1 to 3 days cells were transferred to fresh media containing mild selective pressure for 7 to 14 days. On the day of the experiment, each well of four to six 24-well tissue culture plates was plated with 200 ul to 400 ul of transfected cells at 1.25 to 2×10^6 cells/mL in serum-free media and exposed to differentially-labeled signaling probes that can hybridize with the expression products. For each well, 1.7 to 2.5 uL of each probe at a concentration of 2.5 to 5 uM was added to 50 uL of serum free media in tube A and 0.3 to 0.75 uL of transfection reagent, using Lipofectamine for HEK cells (Thermo Fisher 18324) and jetPEI for CHO (Polyplus Transfection 101) was added to tube B. The contents of tubes A and B were mixed and incubated at room temperature for 25 to 30 minutes prior to addition to the well. Following a 1 to 2 hour incubation at 37° C. in a tissue culture incubator, serum-free media was added to the well up to a total volume of 1 mL. The plates were spun at 2,000 RPM for 4 minutes. 750 uL of media was aspirated and replaced with 250 uL of fresh serum-free media. The cells were incubated for an additional 2 to 2.5 hours then used to isolate individual positive cells using Beckman Coulter Epic Altra or Becton Dickinson FACS Aria flow cytometers.
(§1) Cell-based Assays: Functional testing using fluorescent cell-based assays in the absence of any antibiotic-mediated selectable pressure was performed over time (typically for at least 4 to 6 weeks) to identify inherently stable clones. Commonly available fluorescent membrane potential and calcium flux kits and reagents were used for fluorescent cell-based assays in 96-well and 384-well plates using the Molecular Devices FLIPR 3 and Hamamatsu FDSS 6000 plate readers as described (Shekdar 2011; Shekdar and Sawchuk 2012; Shekdar and Venkatachalan 2012, Shekdar 2017). Electrophysiology of ion channel cell lines was obtained using the Nanion Technologies Patchliner patch clamp system. The patch clamp recordings were conducted according to Nanion's standard procedure (Obergrussberger 2014). Currents were measured using the whole-cell configuration. The extracellular solution contained the following: 140 mM NaCl, 4 mM KCl, 1 mM MgCl2, 2 mM CaCl2), 5 mM glucose, 10 mM Hepes, pH 7.4 (adjusted with NaOH). The intracellular solution for sodium current recordings contained the following: 50 mM CsCl, 10 mM NaCl, 60 mM CsF, 20 mM EGTA, 10 mM Hepes, pH 7.2 (adjusted with CsOH). For transient transfection studies, Fugene 6 was used to transfect expression plasmid into cells cultured as above and cells were assayed three days post-transfection.

Test [2] concerns salty taste of sodium chloride. Nature of the test: human sensory taste testing, pairwise comparisons. The test is classed as in vivo. The note with it: pairwise comparisons of 45 mM NaCl+15 pg STE1/mL. The protocol: The sensory studies used pairwise comparisons of 45 mM NaCl+15 pg STE1/mL using a human sensory taste testing protocol approved by an institutional review board, 13 out of 15 participants selected the sample containing STE1 as more salty.

Test [3] relates to proteolyzed αβγ-ENaC. Nature of the test: HTS of a compound library against proteolyzed ENaC cell line. Type of test: cell-based. The method, then: as §1, with “The intracellular solution for sodium current recordings contained the following: 50 mM CsCl, 10 mM NaCl, 60 mM CsF, 20 mM EGTA, 10 mM Hepes, pH 7.2 (adjusted with CsOH). For transient transfection studies, Fugene 6 was used to transfect expression plasmid into cells cultured as above and cells were assayed three days post-transfection.” left out
(§2) Finally, Chromovert® Technology was used to create a cell line for ENaC. […] One potentiator identified during HTS of proteolyzed ENaC was assessed in human sensory studies where it was confirmed to enhance the salty taste of sodium chloride, as shown in FIG. 23E.

Test [4] deals with CFTR. Briefly: functional cell-based assay of the CFTR cell line (response to Forskolin). The conditions noted are these: FIG. 22A left panel, read-out: EC50 value, dose-response curve for the CFTR cell line. The protocol: Production of cell lines: Each gene of interest was subcloned into an independent mammalian expression vector containing a detection tag and drug selectable marker and transfected into HEK293T and CHO cells cultured using DMEM supplemented with 50 mL fetal bovine serum, a 4 mM L-Glutamine, 10 mM Hepes pH 7.4. After 1 to 3 days cells were transferred to fresh media containing mild selective pressure for 7 to 14 days. On the day of the experiment, each well of four to six 24-well tissue culture plates was plated with 200 ul to 400 ul of transfected cells at 1.25 to 2×10^6 cells/mL in serum-free media and exposed to differentially-labeled signaling probes that can hybridize with the expression products. […]
(§3) Cell-based Assays: Functional testing using fluorescent cell-based assays in the absence of any antibiotic-mediated selectable pressure was performed over time (typically for at least 4 to 6 weeks) to identify inherently stable clones. Commonly available fluorescent membrane potential and calcium flux kits and reagents were used for fluorescent cell-based assays in 96-well and 384-well plates using the Molecular Devices FLIPR 3 and Hamamatsu FDSS 6000 plate readers as described (Shekdar 2011; Shekdar and Sawchuk 2012; Shekdar and Venkatachalan 2012, Shekdar 2017). […] Currents were measured using the whole-cell configuration. […]

Test [5] deals with T1, αβγ-ENaC (Homo sapiens, UniProt P37088+P51168+P51170).
T1 construct: expressed in transfected cells
T1 sequence (P51170 whole entry): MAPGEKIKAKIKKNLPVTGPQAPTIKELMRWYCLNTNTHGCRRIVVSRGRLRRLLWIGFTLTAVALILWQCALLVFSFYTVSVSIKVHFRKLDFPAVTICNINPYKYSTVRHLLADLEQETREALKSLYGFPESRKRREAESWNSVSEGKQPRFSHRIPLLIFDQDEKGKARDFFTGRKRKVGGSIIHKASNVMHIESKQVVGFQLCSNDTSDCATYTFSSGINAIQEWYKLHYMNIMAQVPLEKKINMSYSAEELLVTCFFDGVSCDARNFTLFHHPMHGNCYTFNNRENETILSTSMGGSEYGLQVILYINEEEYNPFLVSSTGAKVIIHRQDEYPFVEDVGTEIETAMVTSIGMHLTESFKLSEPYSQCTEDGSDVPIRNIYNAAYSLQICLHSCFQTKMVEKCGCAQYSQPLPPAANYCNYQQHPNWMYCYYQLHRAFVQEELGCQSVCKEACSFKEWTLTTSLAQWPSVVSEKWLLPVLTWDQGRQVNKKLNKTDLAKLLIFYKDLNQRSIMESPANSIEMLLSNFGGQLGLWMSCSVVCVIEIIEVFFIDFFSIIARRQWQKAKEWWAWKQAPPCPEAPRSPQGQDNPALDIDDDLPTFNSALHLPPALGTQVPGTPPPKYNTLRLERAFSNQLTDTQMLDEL
T1 sequence (P51168 whole entry): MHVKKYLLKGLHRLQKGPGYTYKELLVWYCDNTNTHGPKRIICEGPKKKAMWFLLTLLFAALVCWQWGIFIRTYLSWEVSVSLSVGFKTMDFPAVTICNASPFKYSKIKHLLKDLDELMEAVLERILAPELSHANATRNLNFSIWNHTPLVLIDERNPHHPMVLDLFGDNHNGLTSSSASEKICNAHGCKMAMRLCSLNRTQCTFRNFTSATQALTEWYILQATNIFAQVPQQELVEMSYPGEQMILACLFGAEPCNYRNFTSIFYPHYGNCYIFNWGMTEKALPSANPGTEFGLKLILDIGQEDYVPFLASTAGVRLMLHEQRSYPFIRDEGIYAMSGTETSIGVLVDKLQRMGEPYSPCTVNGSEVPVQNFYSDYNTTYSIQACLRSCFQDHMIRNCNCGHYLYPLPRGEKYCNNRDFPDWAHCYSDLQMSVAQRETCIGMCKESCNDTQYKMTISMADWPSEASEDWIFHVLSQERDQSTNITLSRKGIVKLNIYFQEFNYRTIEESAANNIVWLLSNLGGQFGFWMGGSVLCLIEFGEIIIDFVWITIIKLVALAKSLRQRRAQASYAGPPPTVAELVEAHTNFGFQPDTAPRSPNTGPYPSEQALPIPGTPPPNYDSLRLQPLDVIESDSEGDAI
T1 sequence (P37088 whole entry): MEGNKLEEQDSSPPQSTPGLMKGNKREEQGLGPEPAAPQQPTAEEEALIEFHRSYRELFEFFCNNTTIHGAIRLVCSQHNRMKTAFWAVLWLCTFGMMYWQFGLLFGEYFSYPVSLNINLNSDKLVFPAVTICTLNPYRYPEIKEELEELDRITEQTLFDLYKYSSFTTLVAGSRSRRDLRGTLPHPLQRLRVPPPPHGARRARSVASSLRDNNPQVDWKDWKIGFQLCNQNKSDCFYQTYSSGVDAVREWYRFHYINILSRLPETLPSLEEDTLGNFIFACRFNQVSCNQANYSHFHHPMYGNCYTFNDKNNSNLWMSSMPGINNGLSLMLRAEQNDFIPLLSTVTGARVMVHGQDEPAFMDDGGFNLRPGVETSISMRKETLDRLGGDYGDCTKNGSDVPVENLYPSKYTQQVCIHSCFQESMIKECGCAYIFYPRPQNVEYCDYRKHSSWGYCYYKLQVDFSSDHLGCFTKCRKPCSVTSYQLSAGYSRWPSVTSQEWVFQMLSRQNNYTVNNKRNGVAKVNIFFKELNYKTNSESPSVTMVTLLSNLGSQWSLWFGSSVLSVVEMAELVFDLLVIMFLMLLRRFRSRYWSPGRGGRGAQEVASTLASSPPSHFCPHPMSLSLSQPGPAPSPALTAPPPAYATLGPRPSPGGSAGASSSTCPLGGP
Nature of the test: cell-based assay selective for αβγ-ENaC activity (response to sodium increase). The note with it: 75 mM increase in sodium concentration, FIG. 23B right panel. The method, then: Production of cell lines: Each gene of interest was subcloned into an independent mammalian expression vector containing a detection tag and drug selectable marker and transfected into HEK293T and CHO cells cultured using DMEM supplemented with 50 mL fetal bovine serum, a 4 mM L-Glutamine, 10 mM Hepes pH 7.4. After 1 to 3 days cells were transferred to fresh media containing mild selective pressure for 7 to 14 days. […]
as §3, §2

[6] abbreviates: LOPAC (Sigma 1280) screen on panel of four GABAA cell lines.

Consider `NCc1cc(=O)[nH]o1` [Muscimol hydrobromide], for which the “HTS hit: activated at least one of the GABAA cell lines at least as much as GABA itself” value (“HTS hit: activated at least one” for short) in test [1] (setting [6]) is on record as “activated at least one of the cell lines at least as much as GABA itself”.

As for `CC(=O)[C@H]1CC[C@H]2[C@@H]3CC[C@H]4C[C@H](O)CC[C@]4(C)[C@H]3C(=O)C[C@]12C` [5-alpha-pregnan-3alpha-ol-11,20-dione], the “HTS hit: activated at least one” value in test [1] (setting [6]) was “activated at least one of the cell lines at least as much as GABA itself”.

`O=C(O)C1=CCNCC1` [Isoguvacine hydrochloride]: the “HTS hit: activated at least one” value in test [1] (setting [6]) was “activated at least one of the cell lines at least as much as GABA itself”.

For the molecule `OCCN(CCO)c1nc(N2CCCCC2)c2nc(N(CCO)CCO)nc(N3CCCCC3)c2n1` [Dipyridamole], the “HTS hit: activated at least one” value in test [1] (setting [6]) is “identified”.

In the case of `CCCc1ccc(OC(=O)c2ccco2)cc1` [STE1, 4-propylphenyl 2-furoate], the “participants who selected the sample containing STE1 as more salty” value in test [2] is on record as 13 out of 15. Also, in test [3], the “activity identified during HTS of proteolyzed αβγ-ENaC” value is listed as “potentiator of proteolyzed αβγ-ENaC”.

Broadly, the pEC50 is the negative decadic logarithm of the EC50, by convention in mol/L. As for `C=C[C@@]1(C)CC(=O)[C@]2(O)[C@@]3(C)[C@@H](O)CCC(C)(C)[C@@H]3[C@H](O)[C@H](OC(C)=O)[C@@]2(C)O1` [Forskolin], in test [4], the pEC50 is 6.59.

As to `C[C@]12CC[C@@H](O)C[C@@H]1CC[C@@H]1[C@@H]2CC[C@]2(C)C(=O)CC[C@@H]12` [Androsterone], the “HTS hit: activated at least one” value in test [1] was “identified”.

Consider `N=C(N)NC(=O)c1nc(Cl)c(N)nc1N` [amiloride], for which the “effect on the response of the αβγ-ENaC cell line to a sodium increase” value in test [5] is reported as “inhibition of the response to a 75 mM increase in sodium concentration”.

As to `CC(=O)[C@H]1CC[C@H]2[C@@H]3CC[C@H]4C[C@H](O)CC[C@]4(C)[C@H]3CC[C@]12C` [5-alpha-pegnan-3alpha-ol-20-one], the “HTS hit: activated at least one” value in test [1] (setting [6]) was “activated at least one of the cell lines at least as much as GABA itself”.

Take `C[C@]12CC[C@@H](O)C[C@@H]1CC[C@@H]1[C@@H]2CC[C@]2(C)[C@@H](C(=O)CO)CC[C@@H]12` [3-alpha, 21-dihydroxy-5-alpha-pregnan-20-one]: the “HTS hit: activated at least one” value in test [1] (setting [6]) is “activated at least one of the cell lines at least as much as GABA itself”.

As to Ivermectin, the “HTS hit: activated at least one” value in test [1] (setting [6]) is “identified”.

For `O=S(=O)(O)C1CCNCC1` [Piperidine-4-sulphonic acid], the “HTS hit: activated at least one” value in test [1] (setting [6]) is reported as “activated at least one of the cell lines at least as much as GABA itself”.

Consider `COc1cc(/C=C(\C#N)C(=O)c2ccc(O)c(O)c2)cc(I)c1O` [I-OMe-Tyrphostin AG 538], for which the “HTS hit: activated at least one” value in test [1] (setting [6]) is reported as “identified”.

In the case of `CC(C)(C)c1cc(C=C(C#N)C#N)cc(C(C)(C)C)c1O` [Tyrphostin A9], in test [1] (setting [6]), the “HTS hit: activated at least one” value is “identified”.

As for `CN1C(=O)CCS(=O)(=O)C1c1ccc(Cl)cc1` (centres unmarked) [Chlormezanone], the “HTS hit: activated at least one” value in test [1] (setting [6]) is reported as “identified”.

Take `NCCCC(=O)O` [GABA]: the “HTS hit: activated at least one” value in test [1] (setting [6]) is “activated at least one of the cell lines at least as much as GABA itself”.

As to `CCCCNc1c(C(=O)OCC)c(C)nc2c1cnn2CC` [Tracazolate], in test [1] (setting [6]), the “HTS hit: activated at least one” value is on record as “activated at least one of the cell lines at least as much as GABA itself”.

On to `CC(C)c1cccc(C(C)C)c1O` [Propofol], for which the “HTS hit: activated at least one” value in test [1] was “activated at least one of the cell lines at least as much as GABA itself”.

Regarding `O=C(Nc1ccc([N+](=O)[O-])cc1Cl)c1cc(Cl)ccc1O` [Niclosamide], the “HTS hit: activated at least one” value in test [1] (setting [6]) was “identified”.
